Where two headings read alike, the source gives them in different places.
Columns and labels:
wild-type HIV-1 protease = wild-type HIV-1 protease (Human immunodeficiency virus type 1 group M subtype B, UniProt P04585); experiment: Assay for inhibition of microbial expressed HIV protease; assay type: biochemical
Procedure, shortened: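 E. coli-expressed protease (5 pM) preincubated with inhibitor 30 min at room temperature in 50 mM sodium acetate pH 5.5, 100 mM NaCl, 0.1% BSA. Substrate Val-Ser-Gln-Asn-(betanapthyl)Ala-Pro-Ile-Val at 440 micromolar, 1 h at 30° C; acid-quenched, product peak area by C18 HPLC gives inhibition.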

[1] = system: acute HIV infection of T-lymphoid cells; experiment: Assay for inhibition of HIV replication (spread assay); assay type: cell-based, HIV-1; conditions: Human immunodeficiency virus 1, T-lymphoid; read-out: Spread - IC95
Description: • Assay for Inhibition of HIV Replication
Assays for the inhibition of acute HIV infection of T-lymphoid cells were conducted in accordance with Vacca, J. P. et al., Proc. Natl. Acad. Sci. USA 1994, 91: 4096.

[2] = wild-type HIV-1 protease expressed in E. coli, peptide substrate, pH 5.5, read-out: Enzyme Inhibition - IC50

Structure (SMILES)	IC50 (wild-type HIV-1 protease; [2]) [nM]	IC95 [1] [nM]	IC50 (wild-type HIV-1 protease) [nM]
CCCN([C@H](CO)CCC[C@H](CC)NC(=O)[C@@H](NC(=O)OC)C(c1ccccc1)c1ccccc1)S(=O)(=O)c1ccc(N)cc1 [Example F5, N-{(1S,5S)-5-[[(4-aminophenyl)sulfonyl](propyl)amino]-1-ethyl-6-hydroxyhexyl}-Nα-(methoxycarbonyl)-β-phenyl-L-phenylalaninamide]	0.163	54	–
CC[C@@H](CCC[C@@H](CO)N(CCC(C)C)S(=O)(=O)c1ccc(N)cc1)NC(=O)[C@@H](NC(=O)OC)C1c2ccccc2C=Cc2ccccc21 [Example F6, methyl [2-({(1S,5S)-5-[[(4-aminophenyl)sulfonyl](3-methylbutyl)amino]-1-ethyl-6-hydroxyhexyl}amino)-1-(5H-dibenzo[a,d][7]annulen-5-yl)-2-oxoethyl]carbamate]	0.01	10	–
CCCN([C@H](CO)CCC[C@H](CC)NC(=O)[C@H](Cc1ccccc1Br)NC(=O)OC)S(=O)(=O)c1ccc(N)cc1 [Example F7, N-{(1S,5S)-5-[[(4-aminophenyl)sulfonyl](propyl)amino]-1-ethyl-6-hydroxyhexyl}-2-bromo-Nα-(methoxycarbonyl)-L-phenylalaninamide]	0.862	251	–
CCCN([C@H](CO)CCC[C@H](CC)NC(=O)[C@H](Cc1ccccc1Cl)NC(=O)OC)S(=O)(=O)c1ccc(N)cc1 [Example F8, N-{(1S,5S)-5-[[(4-aminophenyl)sulfonyl](propyl)amino]-1-ethyl-6-hydroxyhexyl}-2-chloro-Nα-(methoxycarbonyl)-L-phenylalaninamide]	1.45	249	–
CC[C@@H](CCC[C@@H](CO)N(CCC(C)C)S(=O)(=O)c1ccc(N)cc1)NC(=O)[C@@]1(NC(=O)OC(C)(C)C)C[C@@H]1c1ccccc1 [Example F9, tert-butyl {(1R,2R)-1-[({(1S,5S)-5-[[(4-aminophenyl)sulfonyl](3-methylbutyl)amino]-1-ethyl-6-hydroxyhexyl}amino)carbonyl]-2-phenylcyclopropyl}carbamate]	0.064	76	–
CC[C@@H](CCC[C@@H](CO)N(CCC(C)C)S(=O)(=O)c1ccc(N)cc1)NC(=O)[C@@H](NC(=O)OCc1ccncc1)C(c1ccccc1)c1ccccc1 [Example F10, N-{(1S,55)-5-[[(4-aminophenyl)sulfonyl](3-methylbutyl)amino]-1-ethyl-6-hydroxyhexyl}-β-phenyl-Nα-[(pyridin-4-ylmethoxy)carbonyl]-L-phenylalaninamide]	0.01	17	–
CC[C@@H](CCC[C@@H](CO)N(CCC(C)C)S(=O)(=O)c1ccc(N)cc1)NC(=O)[C@@H](NC(=O)OC)C1c2ccccc2Oc2ccccc21 [Example F11, methyl [2-({(1S,5S)-5-[[(4-aminophenyl)sulfonyl](3-methylbutyl)amino]-1-ethyl-6-hydroxyhexyl}amino)-2-oxo-1-(9H-xanthen-9-yl)ethyl]carbamate]	0.021	38	–
CC[C@@H](CCC[C@@H](CO)N(CCC(C)C)S(=O)(=O)c1ccc(N)cc1)NC(=O)[C@@H](N)C(c1ccccc1)c1ccccc1 [Example F13, N-{(1S,5S)-5-[[(4-aminophenyl)sulfonyl](3-methylbutyl)amino]-1-ethyl-6-hydroxyhexyl}-β-phenyl-L-phenylalaninamide]	0.01	15	–
COC(=O)N[C@H](C(=O)N[C@H](CCC[C@@H](CO)N(C(C)C)S(=O)(=O)c1ccc(N)cc1)C(C)C)C(c1ccccc1)c1ccccc1 [Example F14, N-{(1R,5S)-5-[[(4-aminophenyl)sulfonyl](isopropyl)amino]-6-hydroxy-1-isopropylhexyl}-Nα-(methoxycarbonyl)-β-phenyl-L-phenylalaninamide]	1.76	148	–
COC(=O)N[C@H](C(=O)N[C@@H](C)CCC[C@@H](CO)N(C(C)C)S(=O)(=O)c1ccc(N)cc1)C(c1cccc(F)c1)c1cccc(F)c1 [Example F15, N-{(1S,5S)-5-[[(4-aminophenyl)sulfonyl](isopropyl)amino]-6-hydroxy-1-methylhexyl}-3-fluoro-β-(3-fluorophenyl)-Nα-(methoxycarbonyl)-L-phenylalaninamide]	0.01	16	–
COC(=O)N[C@@H](Cc1cccc(Cl)c1Cl)C(=O)N[C@@H](C)CCC[C@@H](CO)N(C(C)C)S(=O)(=O)c1ccc(N)cc1 [Example F16, N-{(1S,5S)-5-[[(4-aminophenyl)sulfonyl](isopropyl)amino]-6-hydroxy-1-methylhexyl}-2,3-dichloro-Nα-(methoxycarbonyl)-L-phenylalaninamide]	–	58	0.128
CCCN([C@H](CO)CCC[C@H](C)NC(=O)[C@@H](NC(=O)OC)C(c1cccc(F)c1)c1cccc(F)c1)S(=O)(=O)c1ccc(N)cc1 [Example F17, N-{(1S,5S)-5-[[(4-aminophenyl)sulfonyl](propyl)amino]-6-hydroxy-1-methylhexyl}-3-fluoro-β-(3-fluorophenyl)-Nα-(methoxycarbonyl)-L-phenylalaninamide]	0.01	18	–
CCN([C@H](CO)CCC[C@H](C)NC(=O)[C@@H](NC(=O)OC)C(c1ccccc1)c1ccccc1)S(=O)(=O)c1ccc(CO)cc1 [Example G1, N-[(1S,5S)-5-(ethyl{[4-(hydroxymethyl)phenyl]sulfonyl}amino)-6-hydroxy-1-methylhexyl]-Nα-(methoxycarbonyl)-β-phenyl-L-phenylalaninamide]	0.05	37	–
COC(=O)N[C@@H](Cc1ccccc1Cl)C(=O)N[C@@H](C)CCC[C@@H](CO)N(CC(C)C)S(=O)(=O)c1ccc(CO)cc1 [Example G2, 2-chloro-N-{(1S,5S)-6-hydroxy-5-[{[4-(hydroxymethyl)phenyl]sulfonyl}(isobutyl)amino]-1-methylhexyl}-Nα-(methoxycarbonyl)-L-phenylalaninamide]	0.082	14	–
COC(=O)N[C@H](C(=O)N[C@H](CCC[C@@H](CO)N(CCC(C)C)S(=O)(=O)c1ccc2ncsc2c1)C1CC1)C(c1ccccc1)c1ccccc1 [Example G3, N-{(1R,5S)-5-[(1,3-benzothiazol-6-ylsulfonyl)(3-metbylbutyl)amino]-1-cyclopropyl-6-hydroxyhexyl}-Nα-(methoxycarbonyl)-β-phenyl-L-phenylalaninamide]	0.158	44	–
COC(=O)N[C@H](C(=O)N[C@@H](C)CCC[C@@H](CO)N(C)S(=O)(=O)c1ccc(N)cc1)C(c1ccccc1)c1ccccc1 [Example G4, N-{(1S,5S)-5-[[(4-aminophenyl)sulfonyl](methyl)amino]-6-hydroxy-1-methylhexyl}-Nα-(metboxycarbonyl)-β-phenyl-L-phenylalaninamide]	0.405	41	–
CCN([C@H](CO)CCC[C@H](C)NC(=O)[C@@H](NC(=O)OC)C(c1ccccc1)c1ccccc1)S(=O)(=O)c1ccc(N)cc1 [Example G5, N-{(1S,5S)-5-[[(4-aminophenyl)sulfonyl](ethyl)amino]-6-hydroxy-1-methylhexyl}-Nα-(methoxycarbonyl)-β-phenyl-L-phenylalaninamide]	0.378	64	–
COC(=O)N[C@H](C(=O)N[C@@H](C)CCC[C@@H](CO)N(C)S(=O)(=O)c1ccc(CO)cc1)C(c1ccccc1)c1ccccc1 [Example G6, N-{(1S,5S)-6-hydroxy-5-[{[4-(hydroxymethyl)phenyl]sulfonyl}(methyl)amino]-1-methylhexyl}-Nα-(methoxycarbonyl)-β-phenyl-L-phenylalaninamide]	0.376	161	–
COC(=O)N[C@H](C(=O)N[C@@H](C)CCC[C@@H](CO)N(CC1CC1)S(=O)(=O)c1ccc(N)cc1)C(c1ccccc1)c1ccccc1 [Example G7, N-{(1S,5S)-5-[[(4-aminophenyl)sulfonyl](cyclopropylmethyl)amino]-6-hydroxy-1-methylhexyl}-Nα-(methoxycarbonyl)-β-phenyl-L-phenylalaninamide]	0.024	15	–
COC(=O)N[C@@H](Cc1ccccc1Cl)C(=O)N[C@@H](C)CCC[C@@H](CO)N(C)S(=O)(=O)c1ccc(CO)cc1 [Example G8, 2-chloro-N-{(1S,5S)-6-hydroxy-5-[{[4-(hydroxymethyl)phenyl]sulfonyl}(methyl)amino]-1-methylhexyl}-Nα-(methoxycarbonyl)-L-phenylalaninamide]	3.2	191	–
CCN([C@H](CO)CCC[C@H](C)NC(=O)[C@H](Cc1ccccc1Cl)NC(=O)OC)S(=O)(=O)c1ccc(CO)cc1 [Example G9, 2-chloro-N-[(1S,5S)-5-(ethyl{[4-(hydroxymethyl)phenyl]sulfonyl}amino)-6-hydroxy-1-methylhexyl]-Nα-(methoxycarbonyl)-L-phenylalaninamide]	0.629	102	–
COC(=O)N[C@@H](Cc1ccccc1Cl)C(=O)N[C@@H](C)CCC[C@@H](CO)N(C(C)C)S(=O)(=O)c1ccc(CO)cc1 [Example G10, 2-chloro-N-{(1S,5S)-6-hydroxy-5-[{[4-(hydroxymethyl)phenyl]sulfonyl}(isopropyl)amino]-1-methylhexyl}-Nα-(methoxycarbonyl)-L-phenylalaninamide]	0.389	49	–
COC(=O)N[C@@H](Cc1ccccc1Cl)C(=O)N[C@@H](C)CCC[C@@H](CO)N(C(C)C)S(=O)(=O)c1ccc(N)cc1 [Example G11, N-{(1S,5S)-5-[[(4-aminophenyl)sulfonyl](isopropyl)amino]-6-hydroxy-1-methylhexyl}-2-chloro-Nα-(methoxycarbonyl)-L-phenylalaninamide]	1.3	93	–

From patent publication US20100093811A1 (priority 2007, published 2010)
